Test results: patent US8445510B2, “Fused bicyclic kinase inhibitors” (OSI Pharmaceuticals, LLC, priority 2011, dated 2013)

Assays:
[1] = molecular target: T1, RON (Homo sapiens, UniProt Q04912); experiment: sfRON cell mechanistic assay (HeLa), phosphorylated RON ELISA; assay type: cell-based; conditions: HeLa cells transfected with sfRON; inhibition of phosphorylated RON; four hours incubation; at least duplicate experiments; read-out: sfRON mech IC50
T1 sequence (Q04912 913-1400): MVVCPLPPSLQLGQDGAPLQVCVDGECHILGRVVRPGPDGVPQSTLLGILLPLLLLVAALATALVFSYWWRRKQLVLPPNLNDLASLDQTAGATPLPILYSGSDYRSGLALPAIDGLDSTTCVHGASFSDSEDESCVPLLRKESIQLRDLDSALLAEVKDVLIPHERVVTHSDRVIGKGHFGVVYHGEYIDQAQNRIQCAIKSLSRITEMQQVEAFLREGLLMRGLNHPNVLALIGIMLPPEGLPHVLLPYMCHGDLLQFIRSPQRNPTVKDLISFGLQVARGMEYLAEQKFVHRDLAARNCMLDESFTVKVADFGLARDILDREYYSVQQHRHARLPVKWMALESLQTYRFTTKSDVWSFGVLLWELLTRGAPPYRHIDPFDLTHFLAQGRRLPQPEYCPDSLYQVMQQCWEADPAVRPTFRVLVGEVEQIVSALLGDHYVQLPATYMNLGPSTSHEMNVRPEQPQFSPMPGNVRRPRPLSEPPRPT
In short: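 HeLa cells transiently transfected with sfRON plasmid, then exposed 4 h at 37 °C to a 6-point compound series (typically 10 μM to 3 nM, 0.5% DMSO). Phospho-RON (pY1238/1239) in lysates measured by sandwich ELISA with luminescence. IC50 from 4-parameter fit of percent-of-DMSO-control data, at least duplicate runs.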

[2] = test system: Karpas-299 cells; experiment: Karpas-299 cell proliferation assay (CellTiter-Glo); assay type: cell-based; conditions: Homo sapiens, 72 h; Karpas-299 cell line (NPM-ALK); 3 days incubation; at least duplicate experiments; read-out: Prolif. IC50

## Cc1c(-c2cnc3[nH]cc([C@H](C)c4c(OC(F)F)ccc(F)c4Cl)c3c2)cnn1C[C@H](O)CO [Example 70, (2S)-3-[4-(3-{(1S)-1-[2-Chloro-6-(difluoromethoxy)-3-fluorophenyl]ethyl}-1H-pyrrolo[2,3-b]pyridin-5-yl)-5-methyl-1H-pyrazol-1-yl]propane-1,2-diol]
[1]
  IC50: ≤ 200 nM
[2]
  IC50: ≤ 50 nM

## CCc1c(-c2cnc3[nH]cc([C@H](C)c4c(OC)ccc(F)c4Cl)c3c2)cnn1CC(C)(C)O [Example 11, 1-(4-{3-[(1S)-1-(2-Chloro-3-fluoro-6-methoxyphenyl)ethyl]-1H-pyrrolo[2,3-b]pyridin-5-yl}-5-ethyl-1H-pyrazol-1-yl)-2-methylpropan-2-ol]
[1]
  IC50: 200 to 1000 nM
[2]
  IC50: 200 to 1000 nM

## COc1ccc(F)c(Cl)c1[C@@H](C)c1c[nH]c2ncc(-c3cnn(C)c3C(N)=O)cc12 [Example 43, 4-{3-[(1S)-1-(2-Chloro-3-fluoro-6-methoxyphenyl)ethyl]-1H-pyrrolo[2,3-b]pyridin-5-yl}-1-methyl-1H-pyrazole-5-carboxamide]
[1]
  IC50: > 1000 nM
[2]
  IC50: > 1000 nM

## COc1ccc(F)c(Cl)c1[C@@H](C)c1c[nH]c2ncc(-c3cn(C)nc3C(N)=O)cc12 [Example 39, 4-{3-[(1S)-1-(2-Chloro-3-fluoro-6-methoxyphenyl)ethyl]-1H-pyrrolo[2,3-b]pyridin-5-yl}-1-methyl-1H-pyrazole-3-carboxamide]
[1]
  IC50: > 1000 nM
[2]
  IC50: 200 to 1000 nM

## COc1ccc(F)c(Cl)c1[C@@H](C)c1c[nH]c2ncc(-c3c(C)nn(CC(C)(C)O)c3C)cc12 [Example 5, 1-(4-{3-[(1S)-1-(2-Chloro-3-fluoro-6-methoxyphenyl)ethyl]-1H-pyrrolo[2,3-b]pyridin-5-yl}-3,5-dimethyl-1H-pyrazol-1-yl)-2-methylpropan-2-ol]
[1]
  IC50: > 1000 nM
[2]
  IC50: ≤ 50 nM

## Cc1c(-c2cnc3[nH]cc([C@H](C)c4c(OCC(F)(F)F)ccc(F)c4Cl)c3c2)cnn1[C@H]1CC[C@H](O)CC1 [Example 105, trans-4-[4-(3-{(1S)-1-[2-Chloro-3-fluoro-6-(2,2,2-trifluoroethoxy)-phenyl]ethyl}-1H-pyrrolo[2,3-b]pyridin-5-yl)-5-methyl-1H-pyrazol-1-yl]cyclohexanol]
[1]
  IC50: ≤ 200 nM
[2]
  IC50: ≤ 50 nM

## COc1ccc(F)c(Cl)c1[C@@H](C)c1c[nH]c2ncc(-c3cnn(C)c3N)cc12 [Example 38, 4-{3-[(1S)-1-(2-Chloro-3-fluoro-6-methoxyphenyl)ethyl]-1H-pyrrolo[2,3-b]pyridin-5-yl}-1-methyl-1H-pyrazol-5-amine]
[1]
  IC50: 200 to 1000 nM
[2]
  IC50: 50 to 200 nM

## Cc1c(-c2cnc3[nH]cc([C@H](C)c4c(OC(C)C)ccc(F)c4Cl)c3c2)cnn1[C@H]1CC[C@H](O)CC1 [Example 104, trans-4-[4-(3-{(1S)-1-[2-Chloro-3-fluoro-6-(propan-2-yloxy)phenyl]ethyl}-1H-pyrrolo[2,3-b]pyridin-5-yl)-5-methyl-1H-pyrazol-1-yl]cyclohexanol]
[1]
  IC50: 200 to 1000 nM
[2]
  IC50: ≤ 50 nM

## Cc1c(-c2cnc3[nH]cc([C@H](C)c4c(OC(F)F)ccc(F)c4Cl)c3c2)cnn1[C@@H]1C[C@@H](O)[C@@H](O)C1 [Example 75, (1R,2S,4S)-4-[4-(3-{(1S)-1-[2-Chloro-6-(difluoromethoxy)-3-fluoro-phenyl]ethyl}-1H-pyrrolo[2,3-b]pyridin-5-yl)-5-methyl-1H-pyrazol-1-yl]cyclopentane-1,2-diol]
[1]
  IC50: ≤ 200 nM
[2]
  IC50: ≤ 50 nM

## COc1ccc(F)c(Cl)c1[C@@H](C)c1c[nH]c2ncc(-c3cn([C@H]4CC[C@H](O)CC4)nc3OC)cc12 [Example 99, trans-4-(4-{3-[(1S)-1-(2-chloro-3-fluoro-6-methoxyphenyl)ethyl]-1H-pyrrolo[2,3-b]pyridin-5-yl}-3-methoxy-1H-pyrazol-1-yl)cyclohexanol]
[1]
  IC50: ≤ 200 nM
[2]
  IC50: 50 to 200 nM

## COc1ccc(F)c(Cl)c1[C@@H](C)c1c[nH]c2ncc(-c3cn(C)nc3CN)cc12 [Example 50, 1-(4-{3-[(1S)-1-(2-Chloro-3-fluoro-6-methoxyphenyl)ethyl]-1H-pyrrolo[2,3-b]pyridin-5-yl}-1-methyl-1H-pyrazol-3-yl)methanamine]
[1]
  IC50: > 1000 nM
[2]
  IC50: 200 to 1000 nM

## COc1ccc(F)c(Cl)c1[C@@H](C)c1c[nH]c2ncc(-c3cnn([C@H]4CC[C@@H](N(C)C)CC4)c3C)cc12 [Example 54, cis-4-(4-{3-[(1S)-1-(2-Chloro-3-fluoro-6-methoxyphenyl)ethyl]-1H-pyrrolo[2,3-b]pyridin-5-yl}-5-methyl-1H-pyrazol-1-yl)-N,N-dimethylcyclohexanamine]
[1]
  IC50: 200 to 1000 nM
[2]
  IC50: ≤ 50 nM

## CCc1nn([C@H]2CC[C@H](O)CC2)cc1-c1cnc2[nH]cc([C@H](C)c3c(OC(F)F)ccc(F)c3Cl)c2c1 [Example 77, trans-4-[4-(3-{(1S)-1-[2-Chloro-6-(difluoromethoxy)-3-fluorophenyl]ethyl}-1H-pyrrolo[2,3-b]pyridin-5-yl)-3-ethyl-1H-pyrazol-1-yl]cyclohexanol]
[1]
  IC50: ≤ 200 nM
[2]
  IC50: 50 to 200 nM

## Cc1c(-c2cnc3[nH]cc([C@H](C)c4c(OC(F)F)ccc(F)c4Cl)c3c2)cnn1[C@H]1C[C@@](C)(O)C1 [Example 79, cis-3-[4-(3-{(1S)-1-[2-Chloro-6-(difluoromethoxy)-3-fluorophenyl]ethyl}-1H-pyrrolo[2,3-b]pyridin-5-yl)-5-methyl-1H-pyrazol-1-yl]-1-methylcyclobutanol]
[1]
  IC50: 200 to 1000 nM
[2]
  IC50: 50 to 200 nM

## CCc1c(-c2cnc3[nH]cc([C@H](C)c4c(OC(F)F)ccc(F)c4Cl)c3c2)cnn1[C@H]1CC[C@H](O)CC1 [Example 78, trans-4-[4-(3-{(1S)-1-[2-Chloro-6-(difluoromethoxy)-3-fluorophenyl]ethyl}-1H-pyrrolo[2,3-b]pyridin-5-yl)-5-ethyl-1H-pyrazol-1-yl]cyclohexanol]
[1]
  IC50: 200 to 1000 nM
[2]
  IC50: ≤ 50 nM

## COc1ccc(F)c(Cl)c1[C@@H](C)c1c[nH]c2ncc(-c3c(C)nn(C)c3C(N)=O)cc12 [Example 41, 4-{3-[(1S)-1-(2-Chloro-3-fluoro-6-methoxyphenyl)ethyl]-1H-pyrrolo[2,3-b]pyridin-5-yl}-1,3-dimethyl-1H-pyrazole-5-carboxamide]
[1]
  IC50: > 1000 nM
[2]
  IC50: > 1000 nM

## COc1ccc(F)c(Cl)c1[C@@H](C)c1c[nH]c2ncc(-c3cnn([C@@H]4C[C@@H](O)[C@@H](O)C4)c3C)cc12 [Example 31, (1R,2S,4S)-4-(4-{3-[(1S)-1-(2-Chloro-3-fluoro-6-methoxyphenyl)ethyl]-1H-pyrrolo[2,3-b]pyridin-5-yl}-5-methyl-1H-pyrazol-1-yl)cyclopentane-1,2-diol]
[1]
  IC50: 200 to 1000 nM
[2]
  IC50: ≤ 50 nM

## Cc1c(-c2cnc3[nH]cc([C@H](C)c4c(OC(F)F)ccc(F)c4Cl)c3c2)cnn1[C@H]1C[C@@H](O)C1 [Example 81, cis-3-[4-(3-{(1S)-1-[2-Chloro-6-(difluoromethoxy)-3-fluorophenyl]ethyl}-1H-pyrrolo[2,3-b]pyridin-5-yl)-5-methyl-1H-pyrazol-1-yl]cyclobutanol]
[1]
  IC50: 200 to 1000 nM
[2]
  IC50: ≤ 50 nM

## COc1ccc(F)c(Cl)c1[C@@H](C)c1c[nH]c2ncc(-c3cnn(C[C@@H](O)CO)c3C(F)(F)F)cc12 [Example 35, (2R)-3-[4-{3-[(1S)-1-(2-Chloro-3-fluoro-6-methoxyphenyl)ethyl]-1H-pyrrolo[2,3-b]pyridin-5-yl}-5-(trifluoromethyl)-1H-pyrazol-1-yl]propane-1,2-diol]
[1]
  IC50: > 1000 nM
[2]
  IC50: 200 to 1000 nM
